From ChEMBL document CHEMBL2434941, “Synthesis of conformationally constrained γ-D-glutamyl-meso-diaminopimelic acid derivatives as ligands of nucleotide-binding oligomerization domain protein 1 (Nod1)” (Eur J Med Chem, 2013) come the findings set out here.

Active and inactive are the calls of the source. No cut-off for these calls is given here.

For test [1], the system named is PBMC. The test can be described thus: Immunomodulatory activity in human PBMC assessed as increase in LPS-induced TNF-alpha production at 10 uM after 24 hrs by flow cytometric analysis. The test is classed as functional, cell-based. For orientation: In flow cytometry, cells or beads pass a laser one at a time.
Test [2] has as its system PBMC. The test can be described thus: Immunomodulatory activity in human PBMC assessed as increase in IL-1beta production at 10 uM after 24 hrs by flow cytometric analysis. The test is classed as functional, cell-based.
Test [3] has as its target T1, Nucleotide-binding oligomerization domain-containing protein 1 (Homo sapiens) (UniProt Q9Y239).
T1 sequence (whole entry): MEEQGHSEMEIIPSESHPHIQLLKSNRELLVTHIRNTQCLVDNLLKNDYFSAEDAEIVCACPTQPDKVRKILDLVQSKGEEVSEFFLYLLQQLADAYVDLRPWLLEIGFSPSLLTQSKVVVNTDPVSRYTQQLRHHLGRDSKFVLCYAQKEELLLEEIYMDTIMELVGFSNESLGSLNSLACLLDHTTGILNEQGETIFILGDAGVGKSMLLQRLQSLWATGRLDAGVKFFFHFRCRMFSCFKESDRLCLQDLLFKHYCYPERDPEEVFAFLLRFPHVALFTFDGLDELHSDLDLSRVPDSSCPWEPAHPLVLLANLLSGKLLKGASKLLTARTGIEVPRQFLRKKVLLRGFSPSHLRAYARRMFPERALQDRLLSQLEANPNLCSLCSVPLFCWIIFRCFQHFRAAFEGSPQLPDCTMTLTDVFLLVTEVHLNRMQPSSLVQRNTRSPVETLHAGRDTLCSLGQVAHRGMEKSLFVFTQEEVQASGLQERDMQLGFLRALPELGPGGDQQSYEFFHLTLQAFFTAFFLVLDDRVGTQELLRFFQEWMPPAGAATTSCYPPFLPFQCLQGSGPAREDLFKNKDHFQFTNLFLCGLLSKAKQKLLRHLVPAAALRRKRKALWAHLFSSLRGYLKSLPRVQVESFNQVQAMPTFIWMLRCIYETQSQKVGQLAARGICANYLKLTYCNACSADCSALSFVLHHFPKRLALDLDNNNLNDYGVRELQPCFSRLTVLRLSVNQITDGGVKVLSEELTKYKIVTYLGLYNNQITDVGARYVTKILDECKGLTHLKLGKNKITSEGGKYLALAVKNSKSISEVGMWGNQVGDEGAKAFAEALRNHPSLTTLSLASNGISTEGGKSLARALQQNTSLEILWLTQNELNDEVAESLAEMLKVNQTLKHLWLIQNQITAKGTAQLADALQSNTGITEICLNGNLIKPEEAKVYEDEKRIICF
The test can be described thus: Agonist activity at human Nod1 expressed in human Ramos-Blue cells assessed as increase in NF-kappaB transcriptional activity at 10 uM after 24 hrs by SEAP reporter gene assay. It counts as cell-based.

In test [4] the test system is PBMC. The test can be described thus: Immunomodulatory activity in human PBMC assessed as increase in LPS-induced IL-8 production at 10 uM after 24 hrs by flow cytometric analysis. It counts as functional, cell-based.
For test [5], the system named is PBMC. Nature of the test: Immunomodulatory activity in human PBMC assessed as increase in LPS-induced IL-12p70 production at 10 uM after 24 hrs by flow cytometric analysis. The test is classed as functional, cell-based.
Test [6] has as its system PBMC. Nature of the test: Immunomodulatory activity in human PBMC assessed as increase in TNF-alpha production at 10 uM after 24 hrs by flow cytometric analysis. The test is classed as functional, cell-based.
Test [7] relates to PBMC. The test can be described thus: Immunomodulatory activity in human PBMC assessed as increase in IL-12p70 production at 10 uM after 24 hrs by flow cytometric analysis. The test is classed as functional, cell-based.
Test [8] deals with T1, Nucleotide-binding oligomerization domain-containing protein 1 (Homo sapiens). Nature of the test: Agonist activity at human Nod1 expressed in human Ramos cells assessed as reduction of NF-kappaB transcriptional activity at 10 uM after 24 hrs by SEAP reporter gene assay in presence of nod1 antagonist noditinib-1. It counts as cell-based. (In general: Reporter assays use an easily measured gene product as a stand-in for the process of interest.)

Test [9] relates to PBMC. The test can be described thus: Immunomodulatory activity in human PBMC assessed as increase in LPS-induced IL-1beta production at 10 uM after 24 hrs by flow cytometric analysis. The test is classed as functional, cell-based.
Test [10] deals with PBMC. Nature of the test: Immunomodulatory activity in human PBMC assessed as increase in LPS-induced IL-6 production at 10 uM after 24 hrs by flow cytometric analysis. The test is classed as functional, cell-based.
For test [11], the system named is PBMC. Nature of the test: Immunomodulatory activity in human PBMC assessed as increase in LPS-induced IL-10 production at 10 uM after 24 hrs by flow cytometric analysis. The test is classed as functional, cell-based.
Test [12] relates to PBMC. The test can be described thus: Immunomodulatory activity in human PBMC assessed as increase in IL-6 production at 10 uM after 24 hrs by flow cytometric analysis. It counts as functional, cell-based.
The subject of test [13] is PBMC. Nature of the test: Immunomodulatory activity in human PBMC assessed as increase in IL-8 production at 10 uM after 24 hrs by flow cytometric analysis. It counts as functional, cell-based.
Test [14] concerns PBMC. Nature of the test: Immunomodulatory activity in human PBMC assessed as increase in IL-10 production at 10 uM after 24 hrs by flow cytometric analysis. It counts as functional, cell-based.

For `CCCCCCCCCCCC(=O)N[C@H](CCC(=O)N[C@@H](CCC[C@@H](N)C(=O)O)C(=O)O)C(=O)O`, the outcome (with PBMC [1]; in the test with PBMC [2]; in [3]; in the test on PBMC [6]; in test [8]; with PBMC [10]) was Active. For the same molecule, the outcome with PBMC [11], in the test with PBMC [12], with PBMC [13] and with PBMC [14] was Active. Also, the result with PBMC [4], in the test with PBMC [5], with PBMC [7] and with PBMC [9] was inactive.

As to `CCCCCCCCCCCC(=O)N[C@H](CCC(=O)N[C@@H](C/C=C/[C@@H](N)C(=O)O)C(=O)O)C(=O)O`, the result (in the test on PBMC [1]; in the test with PBMC [2]; in test [3]; in the test with PBMC [6]; in [8]; in the test on PBMC [10]) was Active. In addition, the result with PBMC [11], with PBMC [12], with PBMC [13] and in the test with PBMC [14] was Active. Also, the outcome in the test on PBMC [4], with PBMC [5], with PBMC [7] and with PBMC [9] was inactive.

Take `CCCCCCCCCCCCN(CCCCCCCCCCCC)[C@H](CCC(=O)N[C@@H](C/C=C/[C@@H](N)C(=O)O)C(=O)O)C(=O)O`: the result in the test with PBMC [1], with PBMC [4], in the test on PBMC [5], with PBMC [7], in the test with PBMC [9] and in the test on PBMC [11] was inactive. Further, the result (in the test on PBMC [2]; in test [3]; in the test on PBMC [6]; in [8]; in the test with PBMC [10]; with PBMC [12]) was Active. For the same molecule, the outcome with PBMC [13] and in the test with PBMC [14] was Active.

For `CCCCCCCCCCCC(=O)N[C@H](CCC(=O)N[C@@H](/C=C/C[C@@H](N)C(=O)O)C(=O)O)C(=O)O`, the result with PBMC [1], in the test with PBMC [4], in the test on PBMC [5], in the test with PBMC [7] and in the test with PBMC [9] was inactive. Besides, the outcome (in the test with PBMC [2]; in test [3]; in the test with PBMC [6]; in test [8]; with PBMC [10]; in the test on PBMC [11]) was Active. Besides, the result in the test on PBMC [12], in the test with PBMC [13] and with PBMC [14] was Active.

Take `CCCCCCCCCCCCN(CCCCCCCCCCCC)[C@H](CCC(=O)N[C@@H](/C=C/C[C@@H](N)C(=O)O)C(=O)O)C(=O)O`: the outcome with PBMC [1], in the test with PBMC [4], with PBMC [5], in the test with PBMC [7] and with PBMC [9] was inactive. Also, the outcome (in the test with PBMC [2]; in test [3]; with PBMC [6]; in [8]; in the test with PBMC [10]; with PBMC [11]) was Active. In addition, the outcome with PBMC [12], in the test on PBMC [13] and in the test on PBMC [14] was Active.
